Experiments:
KRAS G12D [1] = target: T1, KRAS G12D (Homo sapiens (Human), UniProt P01116, G12D); experiment: KRAS G12D Nucleotide Exchange Assay (HTRF); assay type: biochemical; conditions: recombinant GDP-loaded KRAS G12D (20 nM), BIODIPY-labeled GDP (400 nM), recombinant SOS (10 nM), HTRF signal
Method: Recombinant GDP-loaded KRAS G12D (20 nM) was treated with compound at room temperature for 20 minutes in assay buffer (10 mM Hepes pH 7.4, 150 mM NaCl, 5 mM MgCl2, 0.0025% Igepal-CA630, 0.05% BSA, 1 mM DTT, 0.5 nM SA-Tb). BIODIPY-labeled GDP (400 nM) and recombinant SOS (10 nM) were added, and the reaction was incubated for 30 minutes.

KRAS G12D [2] = target: T1, KRAS G12D; experiment: KRAS G12D RAF Disruption Assay (HTRF); assay type: biochemical; conditions: recombinant GMPPNP-loaded KRAS G12D (5 nM), GST-RAF1 RBD (9 nM), HTRF signal
Method: Recombinant GMPPNP-loaded KRAS G12D (5 nM) was treated with compound at room temperature for 20 minutes in assay buffer (50 mM Tris pH 7.5, 100 mM NaCl, 1 mM MgCl2, 1 mM DTT, 100 ug/mL BSA).

T1 sequence (P01116-2 other isoform, or with tags, fused parts or gaps G12D): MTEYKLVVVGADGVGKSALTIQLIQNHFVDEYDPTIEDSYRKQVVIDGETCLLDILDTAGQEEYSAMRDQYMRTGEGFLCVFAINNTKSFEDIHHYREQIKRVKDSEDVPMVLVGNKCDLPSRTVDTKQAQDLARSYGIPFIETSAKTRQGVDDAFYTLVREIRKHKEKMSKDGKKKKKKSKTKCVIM

| KRASG12D Nucleotide Exchange Assay (IC50, µM) (KRAS G12D [1]) | KRASG12D RAF Disruption Assay (IC50, µM) (KRAS G12D [2]) | Compound |
| --- | --- | --- |
| 1.3 µM | 19.6 µM | CCc1cccc2cc(O)cc(-c3c(Cl)cc4c(N5CC[C@H]6CC[C@@H](C5)N6)nc(OC[C@@]56CCCN5C[C@H](F)C6)nc4c3F)c12 (single isomer, unassigned) [Example 8-2] |
| 0.01 µM | 0.22 µM | Cc1cc(N)nc(-c2c(Cl)cc3c(N4CC[C@H]5CC[C@@H](C4)N5)nc(OC[C@@]45C[C@@H](F)CN4CC4(CC4)C5)nc3c2F)c1C(F)(F)F [Example 13-1, 6-(2-{[(6′R, 7′aR)-6′-fluoro-hexahydrospiro[cyclopropane-1,2′-pyrrolizine]-7′a-yl]methoxy}-6-chloro-4-[(1S,6R)-3,9-diazabicyclo[4.2.1]nonan-3-yl]-8-fluoroquinazolin-7-yl)-4-methyl-5-(trifluoromethyl)pyridin-2-amine] |
| 0.04 µM | 5.7 µM | CCc1cccc2cc(O)cc(-c3c(Cl)cc4c(N5CC[C@H]6CC[C@@H](C5)N6)nc(OC[C@@]56CCCN5C[C@H](F)C6)nc4c3F)c12 (single isomer, unassigned) [Example 8-1] |
| 0.02 µM | 2.6 µM | Cc1cc(N)nc(-c2c(Cl)cc3c(N4CC[C@H]5CC[C@@H](C4)N5)nc(OCC4(CN5CCCCC5)CC4)nc3c2F)c1C(F)(F)F [Example 10-8, 6-{6-chloro-4-[(1S,6R)-3,9-diazabicyclo[4.2.1]nonan-3-yl]-8-fluoro-2-({1-[(piperidin-1-yl)methyl]cyclopropyl}methoxy)quinazolin-7-yl}-4-methyl-5-(trifluoromethyl)pyridin-2-amine] |
| <0.002 µM | 0.48 µM | Oc1cc(-c2c(Cl)cc3c(N4CC[C@H]5CC[C@@H](C4)N5)nc(OC[C@]45CCCN4C[C@H](F)C5)nc3c2F)c2ccccc2c1 [Example 7, 4-(2-{[(2R,7aR)-2-fluoro-hexahydro-1H-pyrrolizin-7a-yl]methoxy}-6-chloro-4-[(1S,6R)-3,9-diazabicyclo[4.2.1]nonan-3-yl]-8-fluoroquinazolin-7-yl)naphthalen-2-ol] |
| 0.3 µM | 15.5 µM | Oc1cc(-c2c(Cl)cc3c(N4CC[C@H]5CC[C@@H](C4)N5)nc(OC[C@@]45CCCN4C[C@H](F)C5)nc3c2F)c2ccccc2c1 (single isomer, unassigned) [Example 8-8] |
| <0.002 µM | 2.87 µM | Cc1cc(N)nc(-c2c(Cl)cc3c(N4CC[C@H]5CC[C@@H](C4)N5)nc(OC[C@@]45CCCN4C[C@@H](F)C5)nc3c2F)c1C(F)(F)F [Example 5, 6-(2-{[(2S,7aS)-2-fluoro-hexahydro-1H-pyrrolizin-7a-yl]methoxy}-6-chloro-4-[(1S,6R)-3,9-diazabicyclo[4.2.1]nonan-3-yl]-8-fluoroquinazolin-7-yl)-4-methyl-5-(trifluoromethyl)pyridin-2-amine] |
| 2.0 µM | 54.4 µM | CCc1cccc2cccc(-c3ccc4c(N5CC[C@H]6CC[C@@H](C5)N6)nc(OC[C@@]56CCCN5C[C@H](F)C6)nc4c3F)c12 [Example 11-8, 2-{[(2R,7aS)-2-fluoro-hexahydro-1H-pyrrolizin-7a-yl]methoxy}-4-[(1S,6R)-3,9-diazabicyclo[4.2.1]nonan-3-yl]-7-(8-ethylnaphthalen-1-yl)-8-fluoroquinazoline] |
| 0.07 µM | 3.6 µM | Oc1cc(-c2c(Cl)cc3c(N4CC[C@H]5CC[C@@H](C4)N5)nc(OC[C@@]45CCCN4C[C@H](F)C5)nc3c2F)c2c(F)cccc2c1 (single isomer, unassigned) [Example 8-6] |
| 0.005 µM | 0.06 µM | Cc1cc(N)nc(-c2c(Cl)cc3c(N4CC[C@H]5CC[C@@H](C4)N5)nc(OC[C@@]45CCCN4C[C@H](F)C5)nc3c2F)c1C(F)(F)F [Example 4-1, 6-(2-{[(2R,7aS)-2-fluoro-hexahydro-1H-pyrrolizin-7a-yl]methoxy}-6-chloro-4-[(1S,6R)-3,9-diazabicyclo[4.2.1]nonan-3-yl]-8-fluoroquinazolin-7-yl)-4-methyl-5-(trifluoromethyl)pyridin-2-amine] |
| 0.02 µM | 2.4 µM | Cc1cc(N)nc(-c2c(Cl)cc3c(N4CC[C@H]5CC[C@@H](C4)N5)nc(OCC4(CN5CCCC(F)C5)CC4)nc3c2F)c1C(F)(F)F (stereo partly drawn) [Example 10-10, 6-{6-chloro-4-[(1S,6R)-3,9-diazabicyclo[4.2.1]nonan-3-yl]-8-fluoro-2-({1-[(3-fluoropiperidin-1-yl)methyl]cyclopropyl}methoxy)quinazolin-7-yl}-4-methyl-5-(trifluoromethyl)pyridin-2-amine] |
| 0.06 µM | 12.1 µM | Cc1cc(N)nc(-c2c(Cl)cc3c(N4CC[C@H]5CC[C@@H](C4)N5)nc(OCC4(CN5CCOCC5)CC4)nc3c2F)c1C(F)(F)F [Example 10-7, 6-{6-chloro-4-[(1S,6R)-3,9-diazabicyclo[4.2.1]nonan-3-yl]-8-fluoro-2-({1-[(morpholin-4-yl)methyl]cyclopropyl}methoxy)quinazolin-7-yl}-4-methyl-5-(trifluoromethyl)pyridin-2-amine] |
| 0.02 µM | 0.17 µM | C#Cc1c(F)ccc2cc(O)cc(-c3ccc4c(N5CC[C@H]6CC[C@@H](C5)N6)nc(OC[C@@]56CCCN5C[C@H](F)C6)nc4c3F)c12 [Example 11-6, 4-(2-{[(2R,7aS)-2-fluoro-hexahydro-1H-pyrrolizin-7a-yl]methoxy}-4-[(1S,6R)-3,9-diazabicyclo[4.2.1]nonan-3-yl]-8-fluoroquinazolin-7-yl)-5-ethynyl-6-fluoronaphthalen-2-ol] |
| 0.01 µM | 3.68 µM | CN1CCC[C@H]1COc1nc(N2CC[C@H]3CC[C@@H](C2)N3)c2cc(Cl)c(-c3cc(O)cc4ccccc34)c(F)c2n1 [Example 6, 4-{6-chloro-4-[(1S,6R)-3,9-diazabicyclo[4.2.1]nonan-3-yl]-8-fluoro-2-{[(2S)-1-methylpyrrolidin-2-yl]methoxy}quinazolin-7-yl}naphthalen-2-ol] |
| 0.41 µM | 51.0 µM | Cc1cc(N)nc(-c2c(Cl)cc3c(N4CC[C@H]5CC[C@@H](C4)N5)nc(OCC4(CN5CCCC(F)C5)CC4)nc3c2F)c1C(F)(F)F (stereo partly drawn) [Example 10-9, 6-{6-chloro-4-[(1S,6R)-3,9-diazabicyclo[4.2.1]nonan-3-yl]-8-fluoro-2-({1-[(3-fluoropiperidin-1-yl)methyl]cyclopropyl}methoxy)quinazolin-7-yl}-4-methyl-5-(trifluoromethyl)pyridin-2-amine] |
| 0.005 µM | 0.7 µM | Oc1cc(-c2c(Cl)cc3c(N4CC[C@H]5CC[C@@H](C4)N5)nc(OC[C@]45CCCN4C[C@@H](F)C5)nc3c2F)c2ccccc2c1 (single isomer, unassigned) [Example 8-9] |
| 0.2 µM | >100 µM | Cc1cc(N)nc(-c2c(Cl)cc3c(N4CC[C@H]5CC[C@@H](C4)N5)nc(OC[C@@]45CCCN4C[C@@H](OC(F)F)C5)nc3c2F)c1C(F)(F)F (single isomer, unassigned) [Example 10-6] |
| 0.05 µM | 3.0 µM | CCc1cccc2cc(O)cc(-c3ccc4c(N5CC[C@H]6CC[C@@H](C5)N6)nc(OC[C@]56CCC[C@H]5N(C)CCC6)nc4c3F)c12 [Example 9-3, 4-(2-{[(4aS,7aR)-1-methyl-octahydro-1H-cyclopenta[b]pyridin-4a-yl]methoxy}-4-[(1S,6R)-3,9-diazabicyclo[4.2.1]nonan-3-yl]-8-fluoroquinazolin-7-yl)-5-ethylnaphthalen-2-ol] |
| 13.66 µM | >100 µM | CN1CCC[C@H]1COc1nc(N2CCN3CCC2CC3)c2cc(Cl)c(-c3cc(O)cc4ccccc34)c(F)c2n1 [Example 1-2, 4-(6-chloro-4-{1,4-diazabicyclo[3.2.2]nonan-4-yl}-8-fluoro-2-{[(2S)-1-methylpyrrolidin-2-yl]methoxy}quinazolin-7-yl)naphthalen-2-ol] |
| – | 0.07 µM | Oc1cc(-c2c(Cl)cc3c(N4CC[C@H]5CC[C@@H](C4)N5)nc(OC[C@@]45CCCN4C[C@H](F)C5)nc3c2F)c2c(F)cccc2c1 (single isomer, unassigned) [Example 8-5] |
| 0.06 µM | 5.1 µM | Oc1cc(-c2ccc3c(N4CC[C@H]5CC[C@@H](C4)N5)nc(OC[C@@]45CCCN4C[C@H](F)C5)nc3c2F)c2ccccc2c1 [Example 11-7, 4-(2-{[(2R,7aS)-2-fluoro-hexahydro-1H-pyrrolizin-7a-yl]methoxy}-4-[(1S,6R)-3,9-diazabicyclo[4.2.1]nonan-3-yl]-8-fluoroquinazolin-7-yl)naphthalen-2-ol] |
| 7.7 µM | 37.8 µM | CCc1cccc2cc(O)cc(-c3c(Cl)cc4c(N5CC[C@H]6CC[C@@H](C5)N6)nc(OC[C@]56CCCN5C[C@@H](F)C6)nc4c3F)c12 (single isomer, unassigned) [Example 8-4] |

Source: patent US20240217982A1, “KRAS INHIBITORS” (Bristol-Myers Squibb Company, priority 2021, published 2024)
